Numbered stars: 1 amine (or outer) side, 2 acyl side, 3 side chain; on linkers, the order of the positions; unused ones are H or OH. Bridge positions count the residues as written; N and C are the ends. Square brackets hold non-standard residues; d marks the D form. Peptide text beside a SMILES is read from it. * marks the point of attachment. ξ: configuration not given here. Tyr(3-NO2) = N[C@@H](Cc1ccc(O)c([N+](=O)[O-])c1)C(=O)O; Ala(4-isoquinolinyl) = N[C@@H](Cc1cncc2ccccc12)C(=O)O; Phe(4-COOH) = N[C@@H](Cc1ccc(C(=O)O)cc1)C(=O)O; Phe(4-CH2NH2) = NCc1ccc(C[C@H](N)C(=O)O)cc1; Asp(3,3-Me2) = CC(C)(C(=O)O)[C@H](N)C(=O)O; Bip = N[C@@H](Cc1ccc(-c2ccccc2)cc1)C(=O)O; Phe(3-CN) = N#Cc1cccc(C[C@H](N)C(=O)O)c1; Phe(3-OMe) = COc1cccc(C[C@H](N)C(=O)O)c1; Phe(3-Me) = Cc1cccc(C[C@H](N)C(=O)O)c1; X41 = O=C([C@H](CC1CCCNC1)N[*:1])[*:2]; Val(3-OH) = CC(C)(O)[C@H](N)C(=O)O; 2Pal = N[C@@H](Cc1ccccn1)C(=O)O; 4Pal = N[C@@H](Cc1ccncc1)C(=O)O; d4Pal = N[C@H](Cc1ccncc1)C(=O)O; Cha = N[C@@H](CC1CCCCC1)C(=O)O; Cit = NC(=O)NCCC[C@H](N)C(=O)O; Ile(3ξ) = CCC(C)[C@H](N)C(=O)O; Thr(3ξ) = CC(O)[C@H](N)C(=O)O; NMeAbu = CC[C@H](NC)C(=O)O; Carboxymethyl = O=C(O)C*; NMeA = CN[C@@H](C)C(=O)O; Nle = CCCC[C@H](N)C(=O)O; Orn = NCCC[C@H](N)C(=O)O; Dab = NCC[C@H](N)C(=O)O; Dap = NC[C@H](N)C(=O)O
Molecular target: T1, PE-labeled human PD-L1-Ig binding to Jurkat cell line over-expressing human PD-1 (Jurkat-PD-1) (Homo sapiens, UniProt Q15116)
T1 construct: expressed in transfected cells; host or cells: Jurkat
T1 sequence (Q15116 25-288): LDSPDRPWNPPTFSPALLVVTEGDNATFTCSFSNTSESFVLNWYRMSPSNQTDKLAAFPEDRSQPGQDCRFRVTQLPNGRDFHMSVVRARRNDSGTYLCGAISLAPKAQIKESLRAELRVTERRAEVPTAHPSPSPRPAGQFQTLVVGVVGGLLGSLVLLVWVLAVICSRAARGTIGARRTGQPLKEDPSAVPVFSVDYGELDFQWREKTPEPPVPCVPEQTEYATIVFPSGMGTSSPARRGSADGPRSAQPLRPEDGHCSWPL
Assay: Jurkat-PD-1 Cell Binding High-Content Screening Assay (CBA): Method 1
Conditions: Jurkat-hPD-1 cells, PE-labeled PD-L1-Ig 20 nM final; read-out: Jurkat HPDL1 PD1 IC50 (uM) (Method 1)

IC50 [µM]	SMILES
0.06	CC(C)C[C@@H]1NC(=O)[C@H](CCN)NC(=O)[C@@H](CC(C)C)NC(=O)[C@H](C)N(C)C(=O)[C@H](Cc2cnc[nH]2)NC(=O)[C@H](Cc2ccc(-c3ccccc3)cc2)NC(=O)[C@H](C(C)C)NC(=O)[C@H](Cc2c[nH]c3ccccc23)NC(=O)[C@H](CC(=O)O)NC(=O)[C@H](Cc2ccc(C(=O)O)cc2)NC(=O)[C@H](CC(N)=O)NC(=O)CSC[C@@H](C(=O)N[C@@H](C)C(N)=O)NC(=O)[C@H]([C@@H](C)O)NC(=O)[C@H](C(C)C)NC1=O [Compound 1383] ({CH2CO}-N[Phe(4-COOH)]DWV[Bip]H[NMeA][dL][Dab]LVTCA-NH2; thioether N-14)
0.04	CC(C)C[C@@H]1NC(=O)[C@H](CCN)NC(=O)[C@@H](CC(C)C)NC(=O)[C@H](C)N(C)C(=O)[C@H](CCCNC(N)=O)NC(=O)[C@H](Cc2ccc(-c3ccccc3)cc2)NC(=O)[C@H](C(C)C)NC(=O)[C@H](Cc2c[nH]c3ccccc23)NC(=O)[C@H](CC(=O)O)NC(=O)[C@H](Cc2ccc(C(=O)O)cc2)NC(=O)[C@H](Cc2ccccn2)NC(=O)CSC[C@@H](C(=O)N[C@@H](C)C(N)=O)NC(=O)[C@H]([C@@H](C)O)NC(=O)[C@H](C(C)C)NC1=O [Compound 1330] ({CH2CO}-[2Pal][Phe(4-COOH)]DWV[Bip][Cit][NMeA][dL][Dab]LVTCA-NH2; thioether N-14)
0.02	CC(C)C[C@@H]1NC(=O)[C@H](CCN)NC(=O)[C@@H](CC(C)C)NC(=O)[C@H](C)N(C)C(=O)[C@H](CCCNC(=N)N)NC(=O)[C@H](Cc2ccc(-c3ccccc3)cc2)NC(=O)[C@H](C(C)C)NC(=O)[C@H](Cc2c[nH]c3ccccc23)NC(=O)[C@H](CC(=O)O)NC(=O)[C@H](Cc2ccc(O)c([N+](=O)[O-])c2)NC(=O)[C@H](Cc2ccccc2)NC(=O)CSC[C@@H](C(=O)N[C@@H](C)C(N)=O)NC(=O)[C@H]([C@@H](C)O)NC(=O)[C@H](C(C)C)NC1=O [Compound 1145] ({CH2CO}-F[Tyr(3-NO2)]DWV[Bip]R[NMeA][dL][Dab]LVTCA-NH2; thioether N-14)
0.06	Cc1cccc(C[C@@H]2NC(=O)[C@H](CC(=O)O)NC(=O)[C@H](Cc3ccc(OCC(=O)O)cc3)NC(=O)[C@H](CCN)NC(=O)CSC[C@@H](C(=O)N[C@@H](CCN)C(N)=O)NC(=O)[C@H](CO)NC(=O)[C@H](C(C)(C)C(=O)O)NC(=O)[C@H](CC3CCCCC3)NC(=O)[C@H](CCN)NC(=O)[C@@H](CC(C)C)NC(=O)[C@H](C)N(C)C(=O)[C@H](Cc3ccc(OCC(=O)O)cc3)NC(=O)[C@H](Cc3ccc(-c4ccccc4)cc3)NC(=O)[C@H](Cc3ccc(OCC(=O)O)cc3)NC2=O)c1 [Compound 1848] ({CH2CO}-[Dab]Y(Carboxymethyl)D[Phe(3-Me)]Y(Carboxymethyl)[Bip]Y(Carboxymethyl)[NMeA][dL][Dab][Cha][Asp(3,3-Me2)]SC[Dab]-NH2; thioether N-14)
0.2	CCCC[C@@H]1NC(=O)[C@H](CCCNC(=N)N)NC(=O)[C@@H](CC(C)C)NC(=O)[C@H](C)N(C)C(=O)[C@H]([C@@H](C)CC)NC(=O)[C@H](Cc2ccc(-c3ccccc3)cc2)NC(=O)[C@H](C(C)C)NC(=O)[C@H](Cc2c[nH]c3ccccc23)NC(=O)[C@H](CC(=O)O)NC(=O)[C@H](Cc2ccc(O)cc2)NC(=O)[C@H](Cc2ccc(OCC(=O)O)cc2)NC(=O)CSC[C@@H](C(=O)N[C@@H](C)C(N)=O)NC(=O)[C@H]([C@@H](C)O)NC(=O)[C@H](C(C)C)NC1=O [Compound 1497] ({CH2CO}-Y(Carboxymethyl)YDWV[Bip]I[NMeA][dL]R[Nle]VTCA-NH2; thioether N-14)
0.07	COc1cccc(C[C@@H]2NC(=O)[C@H](CC(=O)O)NC(=O)[C@H](Cc3ccc(O)cc3)NC(=O)[C@H](CC(N)=O)NC(=O)CSC[C@@H](C(=O)N[C@@H](C)C(N)=O)NC(=O)[C@H]([C@@H](C)O)NC(=O)[C@H](C(C)C)NC(=O)[C@H](CC(C)C)NC(=O)[C@H](CCCNC(N)=O)NC(=O)[C@@H](CC(C)C)NC(=O)[C@H](C)N(C)C(=O)[C@H](CCCNC(=N)N)NC(=O)[C@H](Cc3ccc(-c4ccccc4)cc3)NC(=O)[C@H](C(C)C)NC2=O)c1 [Compound 1191] ({CH2CO}-NYD[Phe(3-OMe)]V[Bip]R[NMeA][dL][Cit]LVTCA-NH2; thioether N-14)
0.25	CC(C)C[C@@H]1NC(=O)[C@H](CCCNC(=N)N)NC(=O)[C@@H](CC(C)C)NC(=O)[C@H](C)N(C)C(=O)[C@H](CCCNC(=N)N)NC(=O)[C@H](Cc2ccc(-c3ccccc3)cc2)NC(=O)[C@H](C(C)C)NC(=O)[C@H](Cc2c[nH]c3ccccc23)NC(=O)[C@H](CC(=O)O)NC(=O)[C@H](Cc2ccc(CN)cc2)NC(=O)[C@H](Cc2ccccc2)NC(=O)CSC[C@@H](C(=O)N[C@@H](C)C(N)=O)NC(=O)[C@H]([C@@H](C)O)NC(=O)[C@H](C(C)C)NC1=O [Compound 1083] ({CH2CO}-F[Phe(4-CH2NH2)]DWV[Bip]R[NMeA][dL]RLVTCA-NH2; thioether N-14)
0.74	CCC(C)[C@@H]1NC(=O)[C@H](Cc2ccc(-c3ccccc3)cc2)NC(=O)[C@H](CCC(=O)O)NC(=O)[C@H](Cc2c[nH]c3ccccc23)NC(=O)[C@H](CC(N)=O)NC(=O)[C@H](Cc2ccc(O)cc2)NC(=O)[C@H](Cc2ccncc2)NC(=O)CSC[C@@H](C(=O)N[C@@H](C)C(N)=O)NC(=O)[C@H](C(C)O)NC(=O)[C@H](CCN)NC(=O)[C@H](CC(C)C)NC(=O)[C@H](CC(N)=O)NC(=O)[C@@H](CC(C)C)NC(=O)[C@H](C)N(C)C1=O (stereo partly drawn) [Compound 2059] ({CH2CO}-[4Pal]YNWE[Bip][Ile(3ξ)][NMeA][dL]NL[Dab][Thr(3ξ)]CA-NH2; thioether N-14)
0.03	Cc1cccc(C[C@@H]2NC(=O)[C@H](CC(=O)O)NC(=O)[C@H](Cc3ccc(OCC(=O)O)cc3)NC(=O)[C@H](CN)NC(=O)CSC[C@@H](C(N)=O)NC(=O)[C@H](CC(N)=O)NC(=O)[C@H](C(C)C)NC(=O)[C@H](CC3CCCCC3)NC(=O)[C@H](CCN)NC(=O)[C@@H](CC(C)C)NC(=O)[C@H](C)N(C)C(=O)[C@H](Cc3ccc(OCC(=O)O)cc3)NC(=O)[C@H](Cc3ccc(-c4ccccc4)cc3)NC(=O)[C@H](Cc3ccc(OCC(=O)O)cc3)NC2=O)c1 [Compound 1648] ({CH2CO}-[Dap]Y(Carboxymethyl)D[Phe(3-Me)]Y(Carboxymethyl)[Bip]Y(Carboxymethyl)[NMeA][dL][Dab][Cha]VNC-NH2; thioether N-14)
0.49	CC(C)C[C@@H]1NC(=O)[C@H](CCN)NC(=O)[C@@H](CC(C)C)NC(=O)[C@H](C)N(C)C(=O)[C@H](CCCNC(=N)N)NC(=O)[C@H](Cc2ccc(-c3ccccc3)cc2)NC(=O)[C@H](C(C)C)NC(=O)[C@H](Cc2cncc3ccccc23)NC(=O)[C@H](CC(=O)O)NC(=O)[C@H](Cc2ccc(O)cc2)NC(=O)[C@H](Cc2ccccc2)NC(=O)CSC[C@@H](C(=O)N[C@@H](C)C(N)=O)NC(=O)[C@H]([C@@H](C)O)NC(=O)[C@H](C(C)C)NC1=O [Compound 1200] ({CH2CO}-FYD[Ala(4-isoquinolinyl)]V[Bip]R[NMeA][dL][Dab]LVTCA-NH2; thioether N-14)
0.15	CC(C)C[C@@H]1NC(=O)[C@H](Cc2c[nH]c3ccccc23)NC(=O)[C@H](CC(=O)O)NC(=O)[C@H](Cc2ccc(O)cc2)NC(=O)[C@H](Cc2ccccc2)NC(=O)CSC[C@@H](C(=O)N[C@@H](C)C(N)=O)NC(=O)[C@H]([C@@H](C)O)NC(=O)[C@H](CCCN)NC(=O)[C@H](CC(C)C)NC(=O)[C@H](CC(N)=O)NC(=O)[C@@H](C)NC(=O)[C@H](C)N(C)C(=O)[C@H](C(C)C)NC(=O)[C@H](Cc2ccc(-c3ccccc3)cc2)NC1=O [Compound 1533] ({CH2CO}-FYDWL[Bip]V[NMeA][dA]NL[Orn]TCA-NH2; thioether N-14)
0.18	CC(C)C[C@@H]1NC(=O)[C@H](CCCNC(=N)N)NC(=O)[C@@H](Cc2ccncc2)NC(=O)[C@H](C)N(C)C(=O)[C@H](CCCNC(=N)N)NC(=O)[C@H](Cc2ccc(-c3ccccc3)cc2)NC(=O)[C@H](C(C)C)NC(=O)[C@H](Cc2c[nH]c3ccccc23)NC(=O)[C@H](CC(=O)O)NC(=O)[C@H](Cc2ccc(O)cc2)NC(=O)[C@H](Cc2ccccc2)NC(=O)CSC[C@@H](C(=O)N[C@@H](C)C(N)=O)NC(=O)[C@H]([C@@H](C)O)NC(=O)[C@H](C(C)C)NC1=O [Compound 1072] ({CH2CO}-FYDWV[Bip]R[NMeA][d4Pal]RLVTCA-NH2; thioether N-14)
0.47	CC[C@H]1C(=O)N[C@H](CC(C)C)C(=O)N[C@@H](CCN)C(=O)N[C@@H](CC2CCCCC2)C(=O)N[C@@H](C(C)(C)O)C(=O)N[C@@H](CO)C(=O)N[C@H](C(=O)N[C@@H](CCN)C(N)=O)CSCC(=O)N[C@@H](Cc2ccncc2)C(=O)N[C@@H](Cc2ccc(OCC(=O)O)cc2)C(=O)N[C@@H](CC(=O)O)C(=O)N[C@@H](Cc2cccc(C)c2)C(=O)N[C@@H](Cc2ccc(OCC(=O)O)cc2)C(=O)N[C@@H](Cc2ccc(-c3ccccc3)cc2)C(=O)N[C@@H](Cc2ccc(OCC(=O)O)cc2)C(=O)N1C [Compound 1837] ({CH2CO}-[4Pal]Y(Carboxymethyl)D[Phe(3-Me)]Y(Carboxymethyl)[Bip]Y(Carboxymethyl)[NMeAbu][dL][Dab][Cha][Val(3-OH)]SC[Dab]-NH2; thioether N-14)
0.01	CC(C)C[C@@H]1NC(=O)[C@H](Cc2c[nH]c3ccccc23)NC(=O)[C@H](CC(=O)O)NC(=O)[C@H](Cc2cccc(C#N)c2)NC(=O)[C@H](Cc2ccccc2)NC(=O)CSC[C@@H](C(=O)N[C@@H](C)C(N)=O)NC(=O)[C@H](CO)NC(=O)[C@H](C(C)C)NC(=O)[C@H](CC(C)C)NC(=O)[C@H](CC(N)=O)NC(=O)[C@@H](C)NC(=O)[C@H](C)N(C)C(=O)[C@H](C(C)C)NC(=O)[C@H](Cc2ccc(-c3ccccc3)cc2)NC1=O [Compound 1723] ({CH2CO}-F[Phe(3-CN)]DWL[Bip]V[NMeA][dA]NLVSCA-NH2; thioether N-14)
0.01	CCC(C)[C@@H]1NC(=O)[C@H](Cc2ccc(-c3ccccc3)cc2)NC(=O)[C@H](C(C)C)NC(=O)[C@H](Cc2c[nH]c3ccccc23)NC(=O)[C@H](CC(=O)O)NC(=O)[C@H](Cc2ccc(O)cc2)NC(=O)[C@H](CC2CCCNC2)NC(=O)CSC[C@@H](C(=O)N[C@@H](C)C(N)=O)NC(=O)[C@H](C(C)O)NC(=O)[C@H](C(C)C)NC(=O)[C@H](CC2CCCCC2)NC(=O)[C@H](CCN)NC(=O)[C@@H](CC(C)C)NC(=O)[C@H](C)N(C)C1=O (stereo partly drawn) [Compound 2051] ({CH2CO}-[X41]YDWV[Bip][Ile(3ξ)][NMeA][dL][Dab][Cha]V[Thr(3ξ)]CA-NH2; thioether N-14)
